The values below are quoted from earlier work in US20230076527A1, “TREATMENT OF PAROXYSMAL NOCTURNAL HEMOGLOBINURIA” (Apellis Pharmaceuticals, Inc., priority 2020, published 2023).

The subject of this series is complement activation. The following applies: relative to compstatin amidated at the C-terminus; published data; cited from earlier work.

On to Ac-ICVVQDWGHHRCT-CONH2 [Ac-compstatin], for which the Activity over compstatin is given as 3xmore.
With “Ac-ICV(1-Nal)QDWGAHRCT-COOH (N-acetyl, 1-Nal) [Ac V4(1-Nal)/H9A -OH]”, the Activity over compstatin is 30xmore.
Consider “H-GICV(6fW)QD(6fW)GAHRCTN-COOH (6-fluoro-Trp) [+G/V4(6fW)/W7(6fW)H9A+N -OH]”, for which the Activity over compstatin is reported as 126xmore.
As to “Ac-1CV(2-Igl)QDWGAHRCT-CONH2 [Ac-V42Igl/H9A]”, the Activity over compstatin is 39xmore.
Take “Ac-ICVWQDWGAHRCT-CONH2 (Ac-ICVWQDWGAHRCT-NH2; cysteine pairing not given here) [Ac-V4W/H9A]”: the Activity over compstatin is 45xmore.
Regarding “Ac-ICVWQD(5fW)GAHRCT-CONH2 [Ac-V4W/W7(5fW)/H9A]”, the Activity over compstatin was 121xmore.
For the substance “Ac-ICV(2-Igl)QDWGAHRCT-COOH (N-acetyl, 2-Igl) [Ac-V42Igl/H9A -OH]”, the Activity over compstatin was 37xmore.
Turning to “Ac-ICVDhtQDWGAHRCT-COOH [Ac-V4Dht/H9A -OH]”, the Activity over compstatin is on record as 5xmore.
Regarding “Ac-ICVWQDWGAHRCdT-COOH [AC-V4W/H9A/T13dT -OH]”, the Activity over compstatin is listed as 55xmore.
As for “Ac-ICV(2-Nal)QDWGAHRCT-COOH (N-acetyl, 2-Nal) [Ac V4(2-Nal)/H9A -OH]”, the Activity over compstatin was 38xmore.
For the substance Ac-ICVYQDWGAHRCT-CONH2 [AC-V4Y/H9A], the Activity over compstatin was 14xmore.
With “Ac-ICV(2-Nal)QDWGAHRCT-CONH2 (N-acetyl, C-amide, 2-Nal) [Ac-V4(2-Nal)/H9A]”, the Activity over compstatin is listed as 99xmore.
As to “Ac-ICV(Bpa)QDWGAHRCT-COOH (N-acetyl, Bpa) [Ac-V4(Bpa)/H9A -OH]”, the Activity over compstatin is recorded as 49xmore.
Turning to “Ac-ICV(Bpa)QDWGAHRCT-CONH2 (N-acetyl, C-amide, Bpa) [Ac-V4(Bpa)/H9A]”, the Activity over compstatin is recorded as 86xmore.
